Structures are written as SMILES.

For orientation: MIC means the least concentration at which growth counts as inhibited.

The test system of one series is microbes. Briefly: Ability to elute from polymer and kill microbes. Conditions: compared with other ceragenins.
Series [1] relates to S. aureus. In words: MIC of CSA-138 for S. aureus. It is filed as cell-based. The settings on record: Staphylococcus aureus.
The subject of series [2] is P. aeruginosa. In words: MIC of CSA-138 for P. aeruginosa. It is filed as cell-based. Conditions: Pseudomonas aeruginosa.
The nature of series [3]: Elution of radiolabeled CSA-138 from hydrogel contact lenses, scintillation counting. The class given is physicochemical. Here is the method: To decrease the detection limit for CSA-138, we prepared a radiolabeled version of CSA-138 (CSA-138T2), incorporated it into contact lenses, and quantified its elution from lenses using scintillation counting.
Lenses containing 1% CSA-138 were stored in 0.5 mL phosphate buffered saline (PBS) prior to testing. One set of lenses was autoclaved for 45 min before elution studies were performed. For elution studies, lenses were suspended in 2 ml aliquots of PBS, 10% TSB growth medium, 10% TSB growth medium containing 10^6 CFU of Staphylococcus aureus, or 10% TSB growth medium containing 10^6 CFU of Pseudomonas aeruginosa. Corresponding aliquots were exchanged every 24 h, including bacterial inocula. Samples were removed every 24 h and analyzed for the presence of CSA-138 using scintillation counting. A standard curve was generated to correlate counts per minute to concentration of CSA-138. All experiments were performed in triplicate.

Series [4] can be described thus: Elution of CSA-138 from hydrogel contact lenses, LC/MS with mass-labeled internal standard. It is filed as physicochemical. Conditions: lenses with CSA-138 incorporated at 1%; LC/MS detection limit about 2 μg/ml. Here is the method: To better understand the mechanism by which hydrophobic ceragenin compounds can prevent bacterial colonization, the bonding between CSA-138 and a hydrogel used in contact lenses was evaluated. In a first example, we determined the rate at which CSA-138 elutes from a hydrogel suitable for use in contact lenses. To quantify the amount of ceragenin eluting from the hydrogel, we used LC/MS using a mass-labeled internal standard. However, this method only gave detection limits of about 2 μg/ml, and we were able to effectively kill bacteria at constant elution rates below the detection limit.

Series [5] deals with S. aureus. Conditions: elution from lenses, inocula 10^6 CFU S. aureus; cited from earlier work.
Series [6] concerns P. aeruginosa. Conditions: elution from lenses, inocula 10^6 CFU P. aeruginosa; cited from earlier work.

For the molecule `CCCCCCCCCCNCCC[C@@H](C)[C@H]1CC[C@H]2[C@@H]3[C@H](OCCCN)C[C@@H]4C[C@H](OCCCN)CC[C@]4(C)[C@H]3C[C@H](OCCCN)[C@]12C` [CSA-136], the “ability to elute and kill microbes” value in the series on microbes is given as “advantageous over CSA-135”.
On to `CCCCCCCCCCCCCNCCC[C@@H](C)[C@H]1CC[C@H]2[C@@H]3[C@H](OCCCN)C[C@@H]4C[C@H](OCCCN)CC[C@]4(C)[C@H]3C[C@H](OCCCN)[C@]12C` [CSA-138], for which the values for the MIC with S. aureus [1] and in the series on P. aeruginosa [2] were 0.5 mg/L and 1 mg/L, respectively. Besides, the “elution in the presence of bacteria” value in series [3] (10% TSB with 10^6 CFU S. aureus (nine days) or P. aeruginosa (eight days), FIGS. 6 and 7) is given as “fluctuated substantially”. In addition, the “elution on the first day” value in series [3] (lenses containing 1% CSA-138, suspended in 2 ml PBS, first day (FIG. 3)) is given as “about 2.2 μg/ml”. The “time until elution of CSA-138 drops below 1 μg/ml” value in series [3] (trend of FIG. 5 extended) was “about 40 days”. The “time until elution fell below detection limits” value in series [4] was “within five days”. Besides, the “prevents colonization, consecutive days” value in the series on S. aureus [5] is recorded as 30 days. In the series with P. aeruginosa [6], the “prevents colonization” value was 19 days.

Values taken from patent US9546195B2, “Hydrophobic ceragenin compounds and devices incorporating same” (BRIGHAM YOUNG UNIVERSITY, priority 2011, dated 2017).
